Assay results reported in PubChem BioAssay (NCI).
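1) Cells in 96-well plates. 2) Compound, 48 h, 5 concentrations. 3) Linear interpolation between surrounding doses. 4) Unreached endpoint = highest concentration. Definition used: TGI = concentration required for complete inhibition of growth.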

Assays:
Assay in all cases: NCI-60 cell line screen, 48 h
HOP-18 NSCLC = test system: HOP-18 NSCLC
M19-MEL melanoma = test system: M19-MEL melanoma
KM20L2 colon = test system: KM20L2 colon
LXFL 529 NSCLC = test system: LXFL 529 NSCLC
DLD-1 colon = test system: DLD-1 colon
SNB-78 CNS = test system: SNB-78 CNS

Structure (SMILES) | TGI (HOP-18 NSCLC) [µM] | TGI (M19-MEL melanoma) [µM] | TGI (KM20L2 colon) [µM] | TGI (LXFL 529 NSCLC) [µM] | TGI (DLD-1 colon) [µM] | TGI (SNB-78 CNS) [µM]
C(=NCCN=Cc1cccc2ccccc12)c1cccc2ccccc12 | > 100 | > 100 | > 100 | > 100 | > 100 | > 100
CCCCCCC(=O)CC(=O)C(=O)Nc1ccccc1C | > 100 | > 100 | > 100 | > 100 | > 100 | > 100
Nc1ncnc2c1ncn2COC/C=C/I | > 100 | > 100 | – | > 100 | > 100 | > 100
O=S1Cc2ccccc2CSS1 (stereo not given) | 89.1 | 44.9 | 41.9 | 27.2 | 41.1 | 62
CC(=O)Nc1ccc(OCC(O)CO)cc1 (stereo not given) | > 100 | > 100 | > 100 | > 100 | 54.1 | > 100
COc1ccc([Se]c2ccc(OC)cc2)cc1 | > 100 | > 100 | > 100 | – | > 100 | –
C=C1CC(CC(=O)C(C)CC2CC(=C)C(=O)O2)OC1=O (stereo not given) | 47.3 | 30.3 | > 100 | 27.8 | 30.4 | 49.7
CC1=C(C(=O)NCc2ccccc2)C(c2ccccc2O)C(C(=O)NCc2ccccc2)=C(C)N1 | 60.1 | 35.7 | 37 | 28.7 | 36 | 95.2
CCOc1cc[n+](C(=C=[N-])C#N)cc1 | – | > 100 | > 100 | > 100 | > 100 | > 100
CCN(CC)c1ccc(N=C2C=CC(=C(C#N)C#N)c3ccccc32)c(C)c1 | 10.3 | 5.77 | 6.75 | – | 6.5 | 6.42
NC(C(=O)O)c1ccc(C(=O)O)cc1 (stereo not given) | – | > 100 | > 100 | > 100 | > 100 | > 100
O=C1OC(=O)C2C1C1C(c3ccccc3)=C(c3ccccc3)C2(O)C2C(=O)OC(=O)C12 (stereo not given) | – | > 100 | > 100 | > 100 | > 100 | > 100
COC(=O)C(C(=O)C(=O)Nc1ccc(N)cc1[N+](=O)[O-])c1nc2ccc(Cl)cc2[nH]c1=O (stereo not given) | > 100 | > 100 | > 100 | – | > 100 | > 100
N#CC1([N+](=O)[O-])C=C1c1ccccc1 (stereo not given) | – | > 100 | > 100 | > 100 | > 100 | > 100
CN/N=C(/CC(=O)c1sc(NNC(C)=O)nc1C)C(=O)Nc1ccc(OC)cc1OC | – | > 100 | > 100 | > 100 | > 100 | > 100
Cc1c(C(=O)Nc2ccc(Cl)cc2)nc(N)nc1-c1cccc(Cl)c1 | > 100 | > 100 | > 100 | – | > 100 | > 100
CCC12C=CCN3CCC4(C(=C(C(=O)OC)C1)Nc1ccccc14)[C@H]32 (stereo not given in full) | > 100 | > 100 | 47.6 | > 100 | > 100 | –
CC(=O)Nc1ccccc1S(=O)c1ccccc1 (stereo not given) | > 100 | > 100 | > 100 | > 100 | > 100 | > 100
CCOc1ccccc1NC(=O)C(=O)c1c(O)c2ccc(O)cc2oc1=O | > 100 | > 100 | > 100 | > 100 | > 100 | > 100
NNC(=O)N/N=C1/C(=O)N(c2ccc(Cl)c(Cl)c2)C(=O)C(=O)C1c1nc2ccccc2o1 (stereo not given) | > 100 | > 100 | > 100 | > 100 | > 100 | > 100
CC(=O)CC(=O)ON(C)C(=O)Cc1ccccc1 | – | > 100 | > 100 | > 100 | > 100 | > 100
CCCCCC/C(CC(=O)CCC(=O)NCCc1ccccc1)=N\NC(=O)c1ccc2ccccc2c1O | 63.9 | 88.4 | > 100 | > 100 | > 100 | > 100
ClCCCN1CCCCC1CCl (stereo not given) | > 100 | > 100 | > 100 | > 100 | > 100 | –
C#Cc1ccccc1N1C(=O)C=CC1=O | – | > 100 | > 100 | > 100 | > 100 | > 100
CC1CCC2[C@@H](C)COC3O[C@]4(C)CCC1C32OO4 (stereo not given in full) | > 100 | – | > 100 | > 100 | > 100 | > 100
C/C(=N\NS(=O)(=O)c1ccccc1)c1ccc[n+]([O-])n1 | > 100 | > 100 | > 100 | > 100 | > 100 | > 100
N#CCCn1c(CCC(=O)Nc2ccc(Cl)cc2Cl)n[nH]c1=S | – | > 100 | > 100 | > 100 | > 100 | > 100
